What was measured:
VDUP1 promoter = assay: Secreted alkaline phosphatase reporter assay, COS cells transiently transfected with VDUP1 promoter constructs, treated with Vitamin D3; format: cell-based, monkey; settings: 200 nM Vitamin D3, all constructs tested, AP reporter
Procedure: (§1) FIG. 5 is a graph showing secreted alkaline phosphatase (SEAP) activity upon transient transfection of COS cells of various VDUP1 promoter constructs operably linked to an alkaline phosphatase encoding nucleotide sequence, treated or untreated with 200 nM Vitamin D3.
(§2) Four deletion constructs were generated corresponding to 5′ end lengths of 1448bp (SEQ ID NO:1), 1002bp (SEQ ID NO:4), 597bp (SEQ ID NO:3), and 452bp (SEQ ID NO:2) as shown in FIG. 1. In the 452bp (SEQ ID NO:2) construct, the two Sp1 elements are deleted. Each fragment was generated by PCR from the 3.0 kb EcoRI-BamHI subclone, and introduced upstream of the secreted alkaline phosphatase (AP) reporter nucleic acid sequence. Representative clones of each were verified by DNA sequencing. The VDUP1 constructs were then transfected into COS cells and screened for expression in comparison to an SV40 immediate early promoter driven AP construct.

[1] = system: SV40 immediate early promoter; assay: Secreted alkaline phosphatase reporter assay, COS cells transfected with SV40 promoter control construct, treated with vitamin D3; format: cell-based; settings: addition of vitamin D3 (200 nM), AP reporter
Procedure: as §1, §2

VDUP1 gene = settings: human HL-60 cells; cited from earlier work
thioredoxin (TRX) = settings: HL-60 cells treated with vitamin D3; cited from earlier work

| SMILES | enhancement of VDUP1 expression (VDUP1 promoter) [%] | induction of SV40 control [1] | induction of VDUP1 (VDUP1 gene) | expression of TRX (thioredoxin (TRX)) |
| --- | --- | --- | --- | --- |
| C=C1/C(=C\C=C2/CCC[C@]3(C)[C@@H]([C@H](C)CCCC(C)(C)O)CC[C@@H]23)C[C@@H](O)C[C@@H]1O [Vitamin D3, 1,25-dihydroxyvitamin D3] | 25 | not induced | strongly induced | significant decrease |
| C[C@@H]1C[C@@H]([C@H](O)CC2CC(=O)NC(=O)C2)C(=O)[C@@H](C)C1 [cyclohexamide] |  |  | several fold |  |

— US6410723B1, “VDUP1 promoter and methods of use thereof” (priority 2000, dated 2002)
